≈ marks a conversion by molar mass, not a printed value.
Columns and labels:
[1] = tested on: P. aeruginosa PAO1 biofilm; assay: Biofilm formation at sub-MIC tobramycin; type: cell-based, Pseudomonas aeruginosa; settings: non-supplemented medium
Description: The potential for cationized phytoglycogen to limit enhanced biofilm formation at sub-MIC concentrations of the aminoglycoside tobramycin was assessed in sterile 96 well polystyrene plates. P. aeruginosa PAO1 stocks were revived by sub-culturing P. aeruginosa PAO1 in Mueller-Hinton broth (Oxoid; Fisher Scientific, Canada) and grown for 20-22 h (37° C., 150 rpm). Sterile solutions of gamma-irradiated cationized phytoglycogen was prepared by reconstitution and dilution as required in sterile Mueller-Hinton broth. […] The inoculum was prepared immediately prior to use by diluting in sterile Mueller-Hinton broth, with a final in-assay cell density of 5×10^5 CFU.ml^−1. Plates were incubated statically at 37° C. At 20 h, biofilms were stained and quantitated according to the previously described protocol (Example 23). Experiments were done in quadruplicate replicate and repeated three times (n=12).

[2] = tested on: P. aeruginosa PAO1 biofilm; assay: Biofilm eradication: 20 h biofilms treated with antibiotic and cationized phytoglycogen; type: cell-based, Pseudomonas aeruginosa; settings: 24 h, medium alone
Description: Biofilm growth and treatments were performed in sterile 96 well polystyrene plates. Sterile solutions of gamma-irradiated cationized phytoglycogen was prepared by reconstitution and dilution as required in sterile Mueller-Hinton broth. P. aeruginosa PAO1 stocks were revived by sub-culturing P. aeruginosa PAO1 (37° C., 150 rpm, 16-18 h) in Mueller-Hinton broth (Oxoid; Fisher Scientific, Canada). The inoculum was prepared immediately prior to use by diluting in sterile Mueller-Hinton broth to a final in-assay cell density of 5×10^5 CFU.ml^−1. 100 μl of this solution was transferred to wells and incubated (37° C., 150 rpm). Sterile broth was the negative growth control. At 20 h, plates were transferred to a biological safety cabinet, well contents were gently aspirated and the wells rinsed with sterile 0.9% (wt/vol) NaCl. […] Positive growth controls contained inoculated medium, non-supplemented or with 1 or 10 mg cationized phytoglycogen.ml^−1. Plates were incubated at 37° C. for a further 24 h, after which biofilms were quantitated as previously described. Experiments were done in quadruplicate replicate and repeated three times (n=12).

[3] = tested on: Pseudomonas aeruginosa PAO1; assay: MIC broth micro-dilution; type: cell-based; settings: P. aeruginosa PAO1, Mueller-Hinton broth, read-out: MIC value established empirically
Description: Minimum inhibitory concentration (MIC) assays were done to evaluate antibacterial properties of cationized phytoglycogen. The MIC is defined as “the lowest concentration of an anti-infective agent that prevents visible growth of a micro-organism in an agar or broth dilution susceptibility test”.
MIC assessments against bacteria were performed following broth micro-dilution in accordance with the Clinical and Laboratory Standards Institute document M07-A9: Methods for Dilution Antimicrobial Susceptibility Tests for Bacteria that Grow Aerobically; Approved Standard. A Gram-positive organism, Bacillus subtilis 168, and two Gram-negative organisms, Escherichia coli AB264 (K-12) and Pseudomonas aeruginosa PAO1 were assessed. Long-term stock cultures of organisms were maintained at −80° C. in glycerol (15% vol/vol). Stocks were revived by sub-culturing onto trypticase soy agar plates, grown for 18 hrs at 37° C. and then stored at 4° C. for up to one week. Overnight cultures were grown by inoculating Mueller-Hinton broth with 3-4 colonies from stock plates and incubating for 20-24 hrs at 37° C. and 150 rpm. […] Plates were incubated at 37° C. for 20 h, at which points wells were scored for growth. […] Cationized phytoglycogen, prepared according to the alternative procedure detailed in Example 3, was also assessed in double-dilution increments from 19 to 10 000 μg.ml^−1. […]

P. aeruginosa PAO1 = assay: Sensitization to antibiotics: MIC in medium supplemented with phytoglycogen; type: cell-based, Pseudomonas aeruginosa; settings: P. aeruginosa
Description: MIC assays as defined in Example 15 were performed in sterile and untreated 96 well microtitre plates according to the broth micro-dilution technique described in either the Clinical and Laboratory Standards Institute document M07-A9: Methods for Dilution Antimicrobial Susceptibility Tests for Bacteria that Grow Aerobically; Approved Standard and document M27-A2 Reference Method for Broth Dilution Antifungal Susceptibility Testing of Yeasts; Approved Standard—Second Edition, with the exception that, where indicated, medium was additionally supplemented with native or cationized phytoglycogen. Assessments done using C. utilis ATCC9950, B. subtilis 168 and E. coli AB264 employed native or cationized phytoglycogen at concentrations ⅛, ¼, ½ their respective MIC values for cationized phytoglycogen. Assessments of the opportunistic pathogen P. aeruginosa PAO1 were made at final in-assay concentrations of 0.5, 1 or 10 mg native or cationized phytoglycogen.ml^−1. Experiments were performed as in-assay duplicates, and were repeated a minimum of three times (n=6).
MIC assays were performed in duplicate within each experiment and were repeated a minimum three times to confirm the data (n=6). MIC values with a four-fold or greater change relative to the non-supplemented medium MIC represent a statistically-significant change in MIC value. Only those antibiotic-cationized phytoglycogen combinations which caused a four-fold change relative to the non-supplemented medium MIC were deemed as indicative of resulting in potentiation (MIC value was less), or tolerance (MIC value increased).

Compound: NC[C@H]1O[C@H](O[C@H]2[C@H](O)[C@@H](O[C@H]3O[C@H](CO)[C@@H](O)[C@H](N)[C@H]3O)[C@H](N)C[C@@H]2N)[C@H](N)C[C@@H]1O [tobramycin]
- factor of biofilm accumulation relative to the medium only control ([1]; tobramycin at % -MIC): 1.5
- factor of biofilm accumulation relative to the medium only control ([1]; tobramycin at ¼-MIC): 1.33
- factor of biofilm accumulation relative to the medium only control ([1]; tobramycin at ½-MIC): > 2.00
- change in biofilm of 20 h biofilms ([2]; 0.125 to 2 times the MIC): net increase in biofilm proliferation
- reduction of biofilm relative to the initial biofilm ([2]; four-fold the MIC): 40%
- MIC [3]: 0.4 µg/mL (≈ 0.856 µM)
- ↓ Fold-change in MIC (cationized phytoglycogen) MIC.5 mg/ml (P. aeruginosa PAO1; 0.5 mg cationized phytoglycogen · ml^−1 Mueller-Hinton Broth): 2 fold
- ↓ Fold-change in MIC (cationized phytoglycogen) MIC1 mg/ml (P. aeruginosa PAO1; 1 mg cationized phytoglycogen · ml^−1 Mueller-Hinton Broth): 2 fold
- ↓ Fold-change in MIC (cationized phytoglycogen) MIC10 mg/ml (P. aeruginosa PAO1; 10 mg cationized phytoglycogen · ml^−1 Mueller-Hinton Broth): 1 fold
- MIC (P. aeruginosa PAO1; Pseudomonas aeruginosa, PAO1, non-supplemented Mueller-Hinton Broth, read-out: MIC): 0.25 µg/mL

— patent US20190125896A1, “ANTI-INFECTIVE COMPOSITIONS COMPRISING PHYTOGLYCOGEN NANOPARTICLES” (MIREXUS BIOTECHNOLOGIES INC., priority 2016, published 2019)
